Test results: patent US10787452B2 (Vertex Pharmaceuticals Incorporated, priority 2012, dated 2020)

The molecules below were run on HCT116 colorectal cancer cells (assay: Cisplatin sensitization assay (96 h cell viability MTS)). Details: 96 h MTS, compound plus Cisplatin.
Assay type: cell-based
In short: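 Viability is measured with MTS reagent, added after 96 h and developed for 1 h at 37° C. Beforehand, cells receive compound and cisplatin simultaneously in a concentration matrix of 2-fold serial dilutions starting at 10 μM final.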
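Also: compound concentration needed to lower the Cisplatin-alone IC50 by a set fold.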

SMILES	Cisplatin Sensitization Assay
CN1CCC(Oc2ccncc2NC(=O)c2c(N)nn3cc(F)cnc23)CC1 [I-O-12, 2-amino-6-fluoro-N-(4-((1-methylpiperidin-4-yl)oxy)pyridin-3-yl)pyrazolo[1,5-a]pyrimidine-3-carboxamide]	+++ (Compounds with a Cisplatin sensitization value of <0.02 μM are marked with “+++.”)
Nc1nn2cc(F)cnc2c1C(=O)Nc1cnccc1-c1ccc(C(=O)N2CCN(C3COC3)CC2)cc1 [I-C-49, 2-amino-6-fluoro-N-(4-(4-(4-(oxetan-3-yl)piperazine-1-carbonyl)phenyl)pyridin-3-yl)pyrazolo[1,5-a]pyrimidine-3-carboxamide]	+++ (Compounds with a Cisplatin sensitization value of <0.02 μM are marked with “+++.”)
Nc1nn2cc(Cl)cnc2c1C(=O)Nc1cnccc1OC1CN2CCC1CC2 (centres unmarked) [I-O-62, 2-amino-6-chloro-N-(4-(quinuclidin-3-yloxy)pyridin-3-yl)pyrazolo[1,5-a]pyrimidine-3-carboxamide]	+++ (Compounds with a Cisplatin sensitization value of <0.02 μM are marked with “+++.”)
Nc1nn2cc(Cl)cnc2c1C(=O)Nc1cnccc1N1CCC(N2CCOCC2)CC1 [I-N-104, 2-amino-6-chloro-N-(4-(4-morpholinopiperidin-1-yl)pyridin-3-yl)pyrazolo[1,5-a]pyrimidine-3-carboxamide]	+++ (Compounds with a Cisplatin sensitization value of <0.02 μM are marked with “+++.”)
CC1(C)CN(C(=O)C2CCN(c3c(F)cncc3NC(=O)c3c(N)nn4cc(F)cnc34)CC2)CCN1 [I-G-27, 2-amino-N-(4-(4-(3,3-dimethylpiperazine-1-carbonyl)piperidin-1-yl)-5-fluoropyridin-3-yl)-6-fluoropyrazolo[1,5-a]pyrimidine-3-carboxamide]	++ (Compounds with a Cisplatin sensitization value >0.02 μM but <0.2 μM are marked with “++.”)
CN1CCN(c2c(F)cncc2NC(=O)c2c(N)nn3cc(Cl)cnc23)CC1 [I-N-14, 2-amino-6-chloro-N-(5-fluoro-4-(4-methylpiperazin-1-yl)pyridin-3-yl)pyrazolo[1,5-a]pyrimidine-3-carboxamide]	+++ (Compounds with a Cisplatin sensitization value of <0.02 μM are marked with “+++.”)
CN1CCN(C(=O)C2CCN(c3c(F)cncc3NC(=O)c3c(N)nn4cc(F)cnc34)CC2)CC1 [I-G-4, 2-amino-6-fluoro-N-(5-fluoro-4-(4-(4-methylpiperazine-1-carbonyl)piperidin-1-yl)pyridin-3-yl)pyrazolo[1,5-a]pyrimidine-3-carboxamide]	+++ (Compounds with a Cisplatin sensitization value of <0.02 μM are marked with “+++.”)
Nc1nn2cc(F)cnc2c1C(=O)Nc1cncc(F)c1N1CCC(C(=O)N2CCC(N3CCCCC3)CC2)CC1 [I-G-60, N-(4-(4-([1,4′-bipiperidine]-1′-carbonyl)piperidin-1-yl)-5-fluoropyridin-3-yl)-2-amino-6-fluoropyrazolo[1,5-a]pyrimidine-3-carboxamide]	+++ (Compounds with a Cisplatin sensitization value of <0.02 μM are marked with “+++.”)
Nc1nn2cc(F)cnc2c1C(=O)Nc1cncc(F)c1N1CCC(c2nccs2)CC1 [I-N-184, 2-amino-6-fluoro-N-(5-fluoro-4-(4-(thiazol-2-yl)piperidin-1-yl)pyridin-3-yl)pyrazolo[1,5-a]pyrimidine-3-carboxamide]	++ (Compounds with a Cisplatin sensitization value >0.02 μM but <0.2 μM are marked with “++.”)
Nc1nn2cc(F)cnc2c1C(=O)Nc1cncc(F)c1N1CCN([C@H]2CCOC2)CC1 [I-N-125, (S)-2-amino-6-fluoro-N-(5-fluoro-4-(4-(tetrahydrofuran-3-yl)piperazin-1-yl)pyridin-3-yl)pyrazolo[1,5-a]pyrimidine-3-carboxamide]	+++ (Compounds with a Cisplatin sensitization value of <0.02 μM are marked with “+++.”)
CCOc1ccncc1NC(=O)c1c(N)nn2cc(Cl)cnc12 [I-O-56, 2-amino-6-chloro-N-(4-ethoxypyridin-3-yl)pyrazolo[1,5-a]pyrimidine-3-carboxamide]	+++ (Compounds with a Cisplatin sensitization value of <0.02 μM are marked with “+++.”)
CN1CCC[C@@H]1C(=O)N1CCN(c2ccncc2NC(=O)c2c(N)nn3cc(F)cnc23)CC1 [I-N-199, (R)-2-amino-6-fluoro-N-(4-(4-(1-methylpyrrolidine-2-carbonyl)piperazin-1-yl)pyridin-3-yl)pyrazolo[1,5-a]pyrimidine-3-carboxamide]	+++ (Compounds with a Cisplatin sensitization value of <0.02 μM are marked with “+++.”)
CC(=O)N1CCCC12CCN(c1ccncc1NC(=O)c1c(N)nn3cc(F)cnc13)CC2 [I-N-262, N-(4-(1-acetyl-1,8-diazaspiro[4.5]decan-8-yl)pyridin-3-yl)-2-amino-6-fluoropyrazolo[1,5-a]pyrimidine-3-carboxamide]	+++ (Compounds with a Cisplatin sensitization value of <0.02 μM are marked with “+++.”)
Nc1nn2cc(F)cnc2c1C(=O)Nc1cncc(Cl)c1N1CCN2CCN(C3COC3)CC2C1 (centres unmarked) [I-N-38, 2-amino-N-(5-chloro-4-(8-(oxetan-3-yl)hexahydro-1H-pyrazino[1,2-a]pyrazin-2(6H)-yl)pyridin-3-yl)-6-fluoropyrazolo[1,5-a]pyrimidine-3-carboxamide]	++ (Compounds with a Cisplatin sensitization value >0.02 μM but <0.2 μM are marked with “++.”)
CN1CCN(c2ccncc2NC(=O)c2c(N)nn3cc(Cl)cnc23)CC1CO (centres unmarked) [I-N-63, 2-amino-6-chloro-N-(4-(3-(hydroxymethyl)-4-methylpiperazin-1-yl)pyridin-3-yl)pyrazolo[1,5-a]pyrimidine-3-carboxamide]	++ (Compounds with a Cisplatin sensitization value >0.02 μM but <0.2 μM are marked with “++.”)
CN1CCN(C(=O)c2ccc(-c3ccncc3NC(=O)c3c(N)nn4cc(F)cnc34)cc2)CC1 [I-C-25, 2-amino-6-fluoro-N-(4-(4-(4-methylpiperazine-1-carbonyl)phenyl)pyridin-3-yl)pyrazolo[1,5-a]pyrimidine-3-carboxamide]	+++ (Compounds with a Cisplatin sensitization value of <0.02 μM are marked with “+++.”)
Nc1nn2cc(F)cnc2c1C(=O)Nc1cncc(F)c1N1CCC(C(=O)N2CC(N3CCCC3)C2)CC1 [I-G-43, 2-amino-6-fluoro-N-(5-fluoro-4-(4-(3-(pyrrolidin-1-yl)azetidine-1-carbonyl)piperidin-1-yl)pyridin-3-yl)pyrazolo[1,5-a]pyrimidine-3-carboxamide]	+++ (Compounds with a Cisplatin sensitization value of <0.02 μM are marked with “+++.”)
CN1CCc2c(cncc2NC(=O)c2c(N)nn3cc(F)cnc23)C1 [I-C-8, 2-amino-6-fluoro-N-(7-methyl-5,6,7,8-tetrahydro-2,7-naphthyridin-4-yl)pyrazolo[1,5-a]pyrimidine-3-carboxamide]	+ (Compounds with a Cisplatin sensitization value >0.2 μM but <5 μM are marked with “+.”)
Cc1cncc(NC(=O)c2c(N)nn3cc(F)cnc23)c1N1CCN(C2CCOCC2)CC1 [I-N-123, 2-amino-6-fluoro-N-(5-methyl-4-(4-(tetrahydro-2H-pyran-4-yl)piperazin-1-yl)pyridin-3-yl)pyrazolo[1,5-a]pyrimidine-3-carboxamide]	++ (Compounds with a Cisplatin sensitization value >0.02 μM but <0.2 μM are marked with “++.”)
CC1CN(C)CCN1c1ccncc1NC(=O)c1c(N)nn2cc(Cl)cnc12 (centres unmarked) [I-N-72, 2-amino-6-chloro-N-(4-(2,4-dimethylpiperazin-1-yl)pyridin-3-yl)pyrazolo[1,5-a]pyrimidine-3-carboxamide]	+++ (Compounds with a Cisplatin sensitization value of <0.02 μM are marked with “+++.”)
CNCCc1cnn(-c2ccncc2NC(=O)c2c(N)nn3cc(F)cnc23)c1 [I-N-8, 2-amino-6-fluoro-N-(4-(4-(2-(methylamino)ethyl)-1H-pyrazol-1-yl)pyridin-3-yl)pyrazolo[1,5-a]pyrimidine-3-carboxamide]	+ (Compounds with a Cisplatin sensitization value >0.2 μM but <5 μM are marked with “+.”)
CN(C)CCOc1ccncc1NC(=O)c1c(N)nn2cc(Cl)cnc12 [I-O-48, 2-amino-6-chloro-N-(4-(2-(dimethylamino)ethoxy)pyridin-3-yl)pyrazolo[1,5-a]pyrimidine-3-carboxamide]	++ (Compounds with a Cisplatin sensitization value >0.02 μM but <0.2 μM are marked with “++.”)
Nc1nn2cc(Cl)cnc2c1C(=O)Nc1cnccc1N1CCC(N2CCCC2)CC1 [I-N-105, 2-amino-6-chloro-N-(4-(4-(pyrrolidin-1-yl)piperidin-1-yl)pyridin-3-yl)pyrazolo[1,5-a]pyrimidine-3-carboxamide]	+++ (Compounds with a Cisplatin sensitization value of <0.02 μM are marked with “+++.”)
Cc1ccn(-c2ccncc2NC(=O)c2c(N)nn3cc(F)cnc23)n1 [I-N-225, 2-amino-6-fluoro-N-(4-(3-methyl-1H-pyrazol-1-yl)pyridin-3-yl)pyrazolo[1,5-a]pyrimidine-3-carboxamide]	++ (Compounds with a Cisplatin sensitization value >0.02 μM but <0.2 μM are marked with “++.”)
Nc1nn2cc(F)cnc2c1C(=O)Nc1cncc(F)c1N1CCN2C(=O)CC[C@@H]2C1 [I-N-182, (R)-2-amino-6-fluoro-N-(5-fluoro-4-(6-oxohexahydropyrrolo[1,2-a]pyrazin-2(1H)-yl)pyridin-3-yl)pyrazolo[1,5-a]pyrimidine-3-carboxamide]	++ (Compounds with a Cisplatin sensitization value >0.02 μM but <0.2 μM are marked with “++.”)
Nc1nn2cc(Cl)cnc2c1C(=O)Nc1cnccc1N1CCN(CC(F)(F)F)CC1 [I-N-67, 2-amino-6-chloro-N-(4-(4-(2,2,2-trifluoroethyl)piperazin-1-yl)pyridin-3-yl)pyrazolo[1,5-a]pyrimidine-3-carboxamide]	+++ (Compounds with a Cisplatin sensitization value of <0.02 μM are marked with “+++.”)
